We go through five compounds from patent publication US20260184663A1, “INDENE COMPOUNDS, PHARMACEUTICAL COMPOSITIONS THEREOF, AND THEIR THERAPEUTIC APPLICATIONS” (NucMito Pharmaceuticals co. Ltd., priority 2022, published 2026).

Holding throughout (format): cell-based
In one assay the test system is HeLa (cervical cancer). Kind of assay: Antiproliferative activity (CCK-8 cell viability), HeLa. The note with it: Homo sapiens, 72 h; for inhibition at 3.3 µM: Compound concentration: 3.3 μM; for inhibition at 10 µM: Compound concentration: 10 μM; for inhibition at 30 µM: Compound concentration: 30 μM. The essentials: (§1)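 Cells were seeded at 2,000-5,000/well (HeLa in MEM, HepG2 and SW480 in DMEM, A549 in F-12K, all with 10% FBS) and treated with compound at 3.3, 10 or 30 μM for 72 h at 37° C. CCK-8 was added for 4 h, absorbance was read at 450 nm, and viability was expressed relative to DMSO-treated wells.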

Assay [1] has as its system A549 (lung adenocarcinoma). Briefly: Antiproliferative activity (CCK-8 cell viability), A549. The note with it: Homo sapiens, 72 h; for inhibition at 3.3 µM: Compound concentration: 3.3 μM; for inhibition at 10 µM: Compound concentration: 10 μM; for inhibition at 30 µM: Compound concentration: 30 μM. The essentials:
as §1

Assay [2] relates to B16F10 (malignant melanoma). Kind of assay: Antiproliferative activity (CCK-8 cell viability), B16F10. The following applies: Mus musculus, 72 h; for inhibition at 3.3 µM: B16-F10, Compound concentration: 3.3 μM; for inhibition at 10 µM: B16-F10, Compound concentration: 10 μM; for inhibition at 30 µM: B16-F10, Compound concentration: 30 μM. The method in brief: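 Attached B16F10 cells in 96-well plates were incubated with compound at 37° C for 72 h, followed by 10 μL CCK-8 reagent per well and a further 4 h incubation. A multi-well plate reader measured absorbance at 450 nm. Percent viability across replicates was calculated against DMSO vehicle-treated cells.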

In another assay the test system is HepG2 (liver cancer). Briefly: Antiproliferative activity (CCK-8 cell viability), HepG2. The note with it: Homo sapiens, 72 h; for inhibition at 3.3 µM: Compound concentration: 3.3 μM; for inhibition at 10 µM: Compound concentration: 10 μM; for inhibition at 30 µM: Compound concentration: 30 μM. The essentials:
as §1

A further assay deals with SW480 (colon cancer). Kind of assay: Antiproliferative activity (CCK-8 cell viability), SW480. The following applies: Homo sapiens, 72 h, read-out: Antiproliferative activity in cancerous cells, SW480 (inhibition of cell growth); for inhibition at 3.3 µM: Compound concentration: 3.3 μM; for inhibition at 10 µM: Compound concentration: 10 μM; for inhibition at 30 µM: Compound concentration: 30 μM. The essentials:
as §1

Assay [3] relates to A431 (epidermoid carcinoma). Kind of assay: Antiproliferative activity (CCK-8 cell viability), A431. The following applies: Homo sapiens, 72 h; for inhibition at 3.3 µM: A-431, Compound concentration: 3.3 μM; for inhibition at 10 µM: A-431, Compound concentration: 10 μM; for inhibition at 30 µM: A-431, Compound concentration: 30 μM. The essentials:
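Cell viability of compound-treated A431 cells was measured with a Cell Counting Kit-8. Each well received 10 μL of CCK-8 after 72 h of compound exposure, followed by 4 h incubation at 37° C. and a 450 nm plate-reader measurement. Percent viability was calculated relative to DMSO controls across replicates.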

The test system of assay [4] is alpha-smooth muscle actin (α-SMA). Kind of assay: Inhibition of TGF-β induced expression of alpha-smooth muscle actin (α-SMA) in CFSC cells (western blot). The following applies: compound at 10 μM, TGF-β (10 ng/mL), 24 hours, band intensity vs TGF-β only. The essentials:
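Values are percent reduction of α-SMA band intensity relative to cells given TGF-β alone, quantified by Western blot densitometry with β-actin probed. Compound was applied at 10 μM alongside 10 ng/mL TGF-β to serum-free CFSC cultures for 24 h at 37 °C.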

Assay [5] deals with MDA-MB-231 (breast cancer). Kind of assay: Antiproliferative activity (CCK-8 cell viability), MDA-MB-231. The following applies: Homo sapiens, 72 h, read-out: Antiproliferative activity in cancerous cells, MDA-MB-231 (inhibition of cell growth); for inhibition at 3.3 µM: Compound concentration: 3.3 μM; for inhibition at 10 µM: Compound concentration: 10 μM; for inhibition at 30 µM: Compound concentration: 30 μM. The method in brief: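 In this CCK-8 viability assay, MDA-MB-231 cells maintained in Dulbecco's modified Eagle's medium containing 10% fetal bovine serum were placed in 96-well plates (2,000-5,000 cells/well) and treated with compound for 72 h at 37° C. A 4 h incubation with 10 μL CCK-8 followed, plates were read at 450 nm, and viability was expressed against DMSO vehicle wells across replicates.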

Where [6] appears, read: read-out: Antiproliferative activity in cancerous cells, HELA (inhibition of cell growth).
The mark [7] stands for this setting: read-out: Antiproliferative activity in cancerous cells, HELA.
Setting [8] is: read-out: Antiproliferative activity in cancerous cells, A549 (inhibition of cell growth).
Where [9] appears, read: read-out: Antiproliferative activity in cancerous cells, B16F10 (inhibition of cell growth).
Where [10] appears, read: read-out: Antiproliferative activity in cancerous cells, B16F10.
[11] abbreviates: read-out: Antiproliferative activity in cancerous cells, HepG2 (inhibition of cell growth).
[12] abbreviates: read-out: Antiproliferative activity in cancerous cells, A431 (inhibition of cell growth).
Where [13] appears, read: read-out: Antiproliferative activity in cancerous cells, A431.

SMILES strings stand for the structures. Like-named read-outs stand apart in the source and are kept apart here. Bounds are passed on as bounds.

With `CC1=C(CC(=O)N2CCN(CCO)CC2)c2cc(F)ccc2/C1=C\c1ccc(Oc2ccc(F)cc2)cc1` [C37, (Z)-2-(5-Fluoro-1-(4-(4-fluorophenoxy)benzylidene)-2-methyl-1H-inden-3-yl)-1-(4-(2-hydroxyethyl)piperazin-1-yl)ethan-1-one], the inhibition at 3.3 µM (with HeLa (cervical cancer) (setting [6]); in assay [1] (setting [8]); in assay [2] (setting [9]); in the assay with HepG2 (liver cancer) (setting [11]); with SW480 (colon cancer); in assay [3] (setting [12])) was below 30% in each case. Moreover, in assay [5], the inhibition at 3.3 µM was below 30%. Also, the inhibition at 10 µM (with HeLa (cervical cancer) (setting [6]); in assay [1] (setting [8]); in assay [2] (setting [9]); in the assay with HepG2 (liver cancer) (setting [11]); with SW480 (colon cancer); in assay [3] (setting [12])) was below 30% in each case. The inhibition at 10 µM in assay [4] is above 80%; in assay [5], below 30%. Further, the inhibition at 30 µM was below 30% with HeLa (cervical cancer) (setting [7]), below 30% in assay [2] (setting [10]) and 30 to 50% in assay [3] (setting [13]).
`CC1=C(CC(=O)NCCN(C)C)c2cc(F)ccc2/C1=C\c1ccc(Oc2ccc(F)cc2)cc1` [C38, (Z)-N-(2-(Dimethylamino)ethyl)-2-(5-fluoro-1-(4-(4-fluorophenoxy)benzylidene)-2-methyl-1H-inden-3-yl)acetamide]: the inhibition at 3.3 µM was below 30% in the assay with HeLa (cervical cancer) (setting [6]); at least 50% in assay [1] (setting [8]); at least 50% in assay [2] (setting [9]); below 30% in the assay with HepG2 (liver cancer) (setting [11]); below 30% in the assay on SW480 (colon cancer); below 30% in assay [3] (setting [12]). Also, the inhibition at 3.3 µM in assay [5] is below 30%. Moreover, the inhibition at 10 µM (in the assay on HeLa (cervical cancer) (setting [6]); in assay [1] (setting [8]); in assay [2] (setting [9]); in the assay with HepG2 (liver cancer) (setting [11]); with SW480 (colon cancer); in assay [3] (setting [12])) was at least 50% each time. Moreover, the values for the inhibition at 10 µM in assay [4] and in assay [5] were above 80% and at least 50%, respectively.
Take `CC1=C(CC(=O)NCCN2CCOCC2)c2cc(F)ccc2/C1=C\c1ccc(Oc2ccc(F)cc2)cc1` [C39, (Z)-2-(5-Fluoro-1-(4-(4-fluorophenoxy)benzylidene)-2-methyl-1H-inden-3-yl)-N-(2-morpholinoethyl)acetamide]: the inhibition at 3.3 µM (with HeLa (cervical cancer) (setting [6]); in assay [1] (setting [8]); in assay [2] (setting [9]); in the assay on HepG2 (liver cancer) (setting [11]); in the assay on SW480 (colon cancer); in assay [3] (setting [12])) was below 30% throughout. For the same compound, the inhibition at 3.3 µM in assay [5] is below 30%. Besides, the inhibition at 10 µM with HeLa (cervical cancer) (setting [6]) is below 30%; in assay [1] (setting [8]), 30 to 50%; in assay [2] (setting [9]) it was below 30%; in the assay on HepG2 (liver cancer) (setting [11]), below 30%; with SW480 (colon cancer), below 30%; in assay [3] (setting [12]) it was below 30%. The inhibition at 10 µM in assay [4] was 50 to 80%; in assay [5], below 30%. The inhibition at 30 µM was below 30% in the assay on HeLa (cervical cancer) (setting [7]); 30 to 50% in assay [1] (read-out: Antiproliferative activity in cancerous cells, A549); below 30% in assay [2] (setting [10]); below 30% with HepG2 (liver cancer) (read-out: Antiproliferative activity in cancerous cells, HepG2); below 30% in assay [3] (setting [13]).
As for `CC(C)c1ccc(/C=C2/C(Cc3ccc(F)cc3)=C(CC(=O)O)c3cc(F)ccc32)cc1` [D2, (Z)-2-(5-Fluoro-2-(4-fluorobenzyl)-1-(4-isopropylbenzylidene)-1H-inden-3-yl)-acetic acid], the inhibition at 3.3 µM in the assay with HeLa (cervical cancer) (setting [6]) was 30 to 50%; in assay [1] (setting [8]), 30 to 50%; in assay [2] (setting [9]), below 30%; in the assay with HepG2 (liver cancer) (setting [11]), below 30%; in the assay with SW480 (colon cancer) it was below 30%; in assay [3] (setting [12]), below 30%. In assay [5], the inhibition at 3.3 µM is at least 50%. Moreover, the inhibition at 10 µM (in the assay with HeLa (cervical cancer) (setting [6]); in assay [1] (setting [8]); in assay [2] (setting [9]); in the assay on HepG2 (liver cancer) (setting [11]); in the assay on SW480 (colon cancer); in assay [3] (setting [12])) was at least 50% throughout. Besides, the inhibition at 10 µM is above 80% in assay [4] and at least 50% in assay [5]. Besides, the inhibition at 30 µM (in the assay with HeLa (cervical cancer) (setting [6]); in assay [1] (setting [8]); in assay [2] (setting [9]); in the assay on HepG2 (liver cancer) (setting [11]); with SW480 (colon cancer); in assay [3] (setting [12])) was at least 50% each time. Besides, the inhibition at 30 µM in assay [5] is at least 50%.
With `CC1=C(CC(=O)O)c2c(F)cc(F)cc2/C1=C\c1cccc(C(F)(F)F)c1` [D6, (Z)-2-(4,6-Difluoro-2-methyl-1-(3-(trifluoromethyl)benzylidene)-1H-inden-3-yl)-acetic acid], the inhibition at 3.3 µM (with HeLa (cervical cancer) (setting [6]); in assay [1] (setting [8]); in assay [2] (setting [9]); in the assay on HepG2 (liver cancer) (setting [11]); in the assay on SW480 (colon cancer); in assay [3] (setting [12])) was below 30% each time. In addition, in assay [5], the inhibition at 3.3 µM was below 30%. The inhibition at 10 µM (with HeLa (cervical cancer) (setting [6]); in assay [1] (setting [8]); in assay [2] (setting [9]); in the assay on HepG2 (liver cancer) (setting [11]); in the assay with SW480 (colon cancer); in assay [3] (setting [12])) was below 30% throughout. Further, the inhibition at 10 µM in assay [4] and in assay [5] was below 30% in each case. Besides, the inhibition at 30 µM is at least 50% in the assay with HeLa (cervical cancer) (setting [6]); at least 50% in assay [1] (setting [8]); below 30% in assay [2] (setting [9]); 30 to 50% with HepG2 (liver cancer) (setting [11]); 30 to 50% in the assay with SW480 (colon cancer); below 30% in assay [3] (setting [12]). Besides, the inhibition at 30 µM in assay [5] was at least 50%.
